Read-outs that look alike come from different tables or passages of the source.
What was measured:
Type in all cases: cell-based
[1] = system: normal murine embryonic fibroblast cell line (BALB/3T3); test: Antiproliferative SRB assay, 72 h, normal cells BALB/3T3; conditions: BALB/3T3, 72 h, mean ± SD
From the text: (§1) The BALB/3T3 cell line was purchased from the American Type Culture Collection (ATCC, Manassas, VA, USA), A549 and MCF-7 cell lines—from European Collection of Authenticated Cell Cultures (Salisbury, UK). The LoVo cell line was purchased from the American Type Culture Collection (ATCC, Manassas, VA, USA), and LoVo/DX by courtesy of Prof. E. Borowski (Technical University of Gdańsk, Gdańsk, Poland). All the cell lines are maintained in the Institute of Immunology and Experimental Therapy (IIET), Wroclaw, Poland. The human lung adenocarcinoma cell line was cultured in a mixture of OptiMEM and RPMI 1640 (1:1) medium (IIET, Wroclaw, Poland), supplemented with 5% foetal bovine serum (GE Healthcare, Logan UT, USA) and 2 mM L-glutamine (Sigma-Aldrich, Merck KGaA, Saint Louis, MO, USA). Human breast adenocarcinoma cell line was cultured in mixture of Eagle’s medium (IIET, Wroclaw, Poland), supplemented with 10% fetal bovine serum, 2 mM L-glutamine, 8 μg/mL insulin, and 1% amino-acids (Sigma-Aldrich, Merck KGaA, Saint Louis, MO, USA). […] Murine embryonic fibroblast cells were cultured in Dulbecco medium (Life Technologies Limited, Paisley, UK), supplemented with 10% foetal bovine serum (GE Healthcare, Logan, UT, USA) and 2 mM glutamine (Sigma-Aldrich, Merck KGaA, Saint Louis, MO, USA). All culture media contained antibiotics: 100 U/mL penicillin and 100 μg/mL streptomycin (Polfa–Tarchomin, Warsaw, Poland). All cell lines were cultured during the entire experiment in a humid atmosphere at 37 °C and 5% CO2. […] The procedure was repeated every year or in the case of less frequently used lines: after thawing.
(§2) Twenty-four h before adding the tested compounds, all cell lines were seeded in 96-well plates (Sarstedt, Nümbrecht, Germany) in appropriate media with 10^4 cells per well. All cell lines were exposed to each tested agent at four different concentrations in the range 100–0.01 μg/mL for 72 h. […] Additionally, all cell lines were exposed to DMSO (solvent used for tested compounds) (POCh, Gliwice, Poland) at concentrations corresponding to these present in tested agents’ dilutions. After 72 h sulforhodamine B assay (SRB) was performed.
(§3) After 72 h of incubation with the tested compounds, cells were fixed in situ by gently adding 50 μL per well of cold 50% trichloroacetic acid TCA (POCh, Gliwice, Poland) and were incubated at 4 °C for one hour. Following, wells were washed four times with water and air dried. Next, 50 μL of 0.1% solution of sulforhodamine B (Sigma-Aldrich, Merck KGaA, Saint Louis, MO, USA) in 1% acetic acid (POCh, Gliwice, Poland) were added to each well and plates were incubated at room temperature for 0.5 h. After incubation time, unbound dye was removed by washing plates four times with 1% acetic acid whereas stain bound to cells was solubilized with 10 mM Tris base (Sigma-Aldrich, Merck KGaA, Saint Louis, MO, USA). Absorbance of each solution was read at Synergy H4 Hybrid Multi-Mode Microplate Reader (BioTek Instruments, Inc., Winooski, VT, USA) at the 540 nm wavelength.
(§4) IC50 values were calculated in Cheburator 0.4, Dmitry Nevozhay software (version 1.2.0 software by Dmitry Nevozhay, 2004–2014, http://www.cheburator.nevozhay.com, freely available) for each experiment. Compounds at each concentration were tested in triplicates in single experiment and each experiment was repeated at least three times independently. The Resistance Index (RI) was defined as the ratio of IC50 for a given compound calculated for resistant cell line to that measured for its parental drug sensitive cell line (Table 1).

[2] = system: human colon adenocarcinoma cell line (LoVo); test: cells; conditions: for IC50: LoVo, 72 h, read-out: IC50 LoVo; for SI LoVo: SI = IC50 BALB/3T3 / IC50 LoVo
From the text: as §1, §2, §3, §4

[3] = system: doxorubicin-resistant human colon adenocarcinoma subline (LoVo/DX); test: cells; conditions: for IC50: LoVo/DX, 72 h, read-out: IC50 LoVo/DX; for RI (resistance index): RI = IC50 LoVo/DX / IC50 LoVo; for SI LoVo/DX: SI = IC50 BALB/3T3 / IC50 LoVo/DX
From the text: as §1, §2, §3, §4

[4] = system: human lung adenocarcinoma (A549); test: cells; conditions: for IC50: A549, 72 h, read-out: IC50 A549; for SI A549: SI = IC50 BALB/3T3 / IC50 A549
From the text: as §1, §2, §3, §4

[5] = system: human breast adenocarcinoma (MCF-7); test: cells; conditions: for IC50: read-out: IC50 MCF-7; for SI MCF-7: SI = IC50 BALB/3T3 / IC50 MCF-7
From the text: as §1, §2, §3, §4

| SMILES | IC50 ([1]; Mus musculus) [nM] | IC50 ([2]; Homo sapiens) [nM] | IC50 ([3]; Homo sapiens) [nM] | RI (resistance index) [3] | SI LoVo/DX [3] | IC50 ([4]; Homo sapiens) [nM] | IC50 ([5]; Homo sapiens, MCF7, 72 h) [nM] | SI MCF-7 [5] | SI LoVo [2] | SI A549 [4] | IC50 [1] [nM] | IC50 ([2]; SRB, mean ± SD) [nM] | IC50 ([3]; SRB, mean ± SD) [nM] | IC50 ([4]; SRB, mean ± SD) [nM] | IC50 ([5]; MCF-7, 72 h, SRB, mean ± SD) [nM] | IC50 ([3]; Homo sapiens, SRB, mean ± SD) [nM] | IC50 ([4]; Homo sapiens, SRB, mean ± SD) [nM] |
| --- | --- | --- | --- | --- | --- | --- | --- | --- | --- | --- | --- | --- | --- | --- | --- | --- | --- |
| COc1c(Br)c2c(c(OC)c1OC)-c1ccc(SC)c(=O)cc1[C@@H](NC(=O)OCC(F)(F)F)CC2 [Compound 8] | 138 ± 10 | 18 ± 10 | 74 ± 7 | 4.11 | 1.86 | 30 ± 21 | 55 ± 26 | 2.51 | – | – | – | – | – | – | – | – | – |
| COc1c(Br)c2c(c(OC)c1OC)-c1ccc(SC)c(=O)cc1[C@@H](NC(=O)OC(C)C)CC2 [Compound 10] | 173 ± 108 | 54 ± 17 | 89 ± 26 | – | 1.94 | 89 ± 20 | 132 ± 17 | 1.31 | 3.20 | 1.94 | – | – | – | – | – | – | – |
| COC(=O)N[C@H]1CCc2c(Br)c(OC)c(OC)c(OC)c2-c2ccc(SC)c(=O)cc21 [Compound 6] | 66 ± 31 | 7 ± 2 | 50 ± 10 | – | – | 10 ± 0.1 | – | – | – | – | – | – | – | – | – | – | – |
| COc1c(Br)c2c(c(OC)c1OC)-c1ccc(SC)c(=O)cc1[C@@H](NC(C)=O)CC2 [Compound 3, 4-bromothiocolchicine] | 103 ± 89 | 14 ± 4 | 135 ± 12 | 9.64 | 0.76 | 10 ± 0.1 | 15 ± 2 | 6.87 | 7.36 | 10.3 | – | – | – | – | – | – | – |
| N.N.[Cl][Pt][Cl] [Cisplatin, reference compound] | – | – | – | 1.3 | 0.68 | – | – | 0.36 | 0.89 | 0.61 | 3900 ± 1500 | 4370 ± 730 | 5700 ± 630 | 6370 ± 1410 | 10700 ± 753 | – | – |
| COc1c(Br)c2c(c(OC)c1OC)-c1ccc(SC)c(=O)cc1[C@@H](N)CC2 [Compound 4, 4-bromo-N-deacetylthiocolchicine] | 1260 ± 796 | 125 ± 44 | 700 ± 88 | 5.60 | 1.80 | 115 ± 7 | 178 ± 20 | 7.08 | 10.08 | – | – | – | – | – | – | – | – |
| COc1c(Br)c2c(c(OC)c1OC)-c1ccc(OC)c(=O)cc1[C@@H](NC(C)=O)CC2 [Compound 2, 4-bromocolchicine] | 142 ± 73 | 84 ± 21 | 1550 ± 170 | 18.45 | 0.09 | 105 ± 8 | 27 ± 8 | 5.26 | 1.69 | 1.35 | – | – | – | – | – | – | – |
| COc1c(Br)c2c(c(OC)c1OC)-c1ccc(SC)c(=O)cc1[C@@H](NC(=O)OCCO)CC2 [Compound 5] | 104 ± 43 | 74 ± 19 | 1010 ± 20 | 13.65 | 0.10 | 74 ± 9 | 57 ± 11 | 1.82 | 1.41 | 1.41 | – | – | – | – | – | – | – |
| COc1c(Br)c2c(c(OC)c1OC)-c1ccc(SC)c(=O)cc1[C@@H](NC(=O)OCCOCCO)CC2 [Compound 12] | 135 ± 15 | 281 ± 185 | 4240 ± 1330 | 15.09 | 0.03 | 93 ± 14 | 125 ± 15 | 1.08 | 0.48 | – | – | – | – | – | – | – | – |
| CCCCOC(=O)N[C@H]1CCc2c(Br)c(OC)c(OC)c(OC)c2-c2ccc(SC)c(=O)cc21 [Compound 11] | 146 ± 14 | 62 ± 13 | 91 ± 9 | – | 1.60 | 95 ± 5 | 125 ± 14 | 1.17 | 2.35 | 1.54 | – | – | – | – | – | – | – |
| COc1cccc2c1C(=O)c1c(O)c3c(c(O)c1C2=O)C[C@@](O)(C(=O)CO)C[C@@H]3O[C@H]1C[C@H](N)[C@H](O)[C@H](C)O1 [Doxorubicin, reference compound] | 166 ± 74 | – | – | – | – | – | – | – | – | – | – | – | – | – | – | 4750 ± 990 | 258 ± 44 |
| CCOC(=O)N[C@H]1CCc2c(Br)c(OC)c(OC)c(OC)c2-c2ccc(SC)c(=O)cc21 [Compound 7] | 102 ± 63 | 11 ± 4 | 71 ± 10 | 6.45 | 1.44 | 12 ± 4 | 18 ± 2 | 5.67 | – | – | – | – | – | – | – | – | – |
| CCCOC(=O)N[C@H]1CCc2c(Br)c(OC)c(OC)c(OC)c2-c2ccc(SC)c(=O)cc21 [Compound 9] | 116 ± 9 | 11 ± 0.1 | 72 ± 11 | 6.55 | 1.61 | 12 ± 4 | 27 ± 7 | 4.30 | – | – | – | – | – | – | – | – | – |

Source: paper PMC6262455 (Cells, 2018)
